In PubChem BioAssay (NCI):
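Growth conditions: 96-well plates. Treatment: test compound, 48 hours, 5 concentrations. Analysis: linear interpolation between bracketing concentrations; unreached endpoints set to highest concentration. GI50: concentration for 50% inhibition of growth. The concentration for full growth arrest is given as TGI.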

How the values were obtained:
Test in all cases: DTP human tumour cell line panel, 48 h
786-0 renal = system: 786-0 renal
A498 renal = system: A498 renal
A549 NSCLC = system: A549 NSCLC
ACHN renal = system: ACHN renal
BT-549 breast = system: BT-549 breast
CAKI-1 renal = system: CAKI-1 renal
CCRF-CEM leukemia = system: CCRF-CEM leukemia
COLO 205 colon = system: COLO 205 colon
DU-145 prostate = system: DU-145 prostate
EKVX NSCLC = system: EKVX NSCLC
HCC-2998 colon = system: HCC-2998 colon
HCT-116 colon = system: HCT-116 colon
HCT-15 colon = system: HCT-15 colon
HL-60(TB) leukemia = system: HL-60(TB) leukemia
HOP-62 NSCLC = system: HOP-62 NSCLC
HOP-92 NSCLC = system: HOP-92 NSCLC
HS 578T breast = system: HS 578T breast
HT29 colon = system: HT29 colon
IGROV1 ovarian = system: IGROV1 ovarian
K-562 leukemia = system: K-562 leukemia
KM12 colon = system: KM12 colon
LOX IMVI melanoma = system: LOX IMVI melanoma
M14 melanoma = system: M14 melanoma
MALME-3M melanoma = system: MALME-3M melanoma
MCF7 breast = system: MCF7 breast
MDA-MB-231 breast = system: MDA-MB-231 breast
MDA-MB-435 = system: MDA-MB-435
MOLT-4 leukemia = system: MOLT-4 leukemia
NCI-H226 lung = system: NCI-H226 lung
NCI-H23 lung = system: NCI-H23 lung
NCI-H460 lung = system: NCI-H460 lung
NCI-H522 lung = system: NCI-H522 lung
NCI/ADR-RES ovarian = system: NCI/ADR-RES ovarian
OVCAR-3 ovarian = system: OVCAR-3 ovarian
OVCAR-4 ovarian = system: OVCAR-4 ovarian
OVCAR-5 ovarian = system: OVCAR-5 ovarian
OVCAR-8 ovarian = system: OVCAR-8 ovarian
PC-3 prostate = system: PC-3 prostate
RPMI-8226 leukemia = system: RPMI-8226 leukemia
RXF 393 renal = system: RXF 393 renal
SF-268 CNS = system: SF-268 CNS
SF-295 CNS = system: SF-295 CNS
SF-539 CNS = system: SF-539 CNS
SK-MEL-2 melanoma = system: SK-MEL-2 melanoma
SK-MEL-28 melanoma = system: SK-MEL-28 melanoma
SK-MEL-5 melanoma = system: SK-MEL-5 melanoma
SK-OV-3 ovarian = system: SK-OV-3 ovarian
SN12C renal = system: SN12C renal
SNB-19 CNS = system: SNB-19 CNS
SNB-75 CNS = system: SNB-75 CNS
SR leukemia = system: SR leukemia
SW-620 colon = system: SW-620 colon
T-47D breast = system: T-47D breast
TK-10 renal = system: TK-10 renal
U251 CNS = system: U251 CNS
UACC-257 melanoma = system: UACC-257 melanoma
UACC-62 melanoma = system: UACC-62 melanoma
UO-31 renal = system: UO-31 renal

CCN(CC)CCCC(C)Nc1c(-c2ccccc2)cnc2cc(Cl)ccc12 (stereo unspecified)
GI50 (786-0 renal): 6.38 µM
TGI (786-0 renal): 20.6 µM
GI50 (A498 renal): 2.71 µM
TGI (A498 renal): 13.8 µM
GI50 (A549 NSCLC): 8.2 µM
TGI (A549 NSCLC): 40.7 µM
GI50 (ACHN renal): 13 µM
TGI (ACHN renal): 36.6 µM
GI50 (BT-549 breast): 8.76 µM
TGI (BT-549 breast): 22.3 µM
GI50 (CAKI-1 renal): 2.12 µM
TGI (CAKI-1 renal): 10.9 µM
GI50 (CCRF-CEM leukemia): 14.4 µM
TGI (CCRF-CEM leukemia): > 100 µM
GI50 (COLO 205 colon): 1.6 µM
TGI (COLO 205 colon): 3.23 µM
GI50 (DU-145 prostate): 13 µM
TGI (DU-145 prostate): 31.3 µM
GI50 (EKVX NSCLC): 7.58 µM
TGI (EKVX NSCLC): 40.7 µM
GI50 (HCC-2998 colon): 2.34 µM
TGI (HCC-2998 colon): 5.62 µM
GI50 (HCT-116 colon): 3.72 µM
TGI (HCT-116 colon): 15.2 µM
GI50 (HCT-15 colon): 3.62 µM
TGI (HCT-15 colon): 13.6 µM
GI50 (HL-60(TB) leukemia): 5.29 µM
TGI (HL-60(TB) leukemia): 23.8 µM
GI50 (HOP-62 NSCLC): 9.62 µM
TGI (HOP-62 NSCLC): 22.9 µM
GI50 (HOP-92 NSCLC): 4.65 µM
TGI (HOP-92 NSCLC): 23.7 µM
GI50 (HS 578T breast): 6.82 µM
TGI (HS 578T breast): 24.7 µM
GI50 (HT29 colon): 2.74 µM
TGI (HT29 colon): 11.5 µM
GI50 (IGROV1 ovarian): 11.8 µM
TGI (IGROV1 ovarian): 31.4 µM
GI50 (K-562 leukemia): 3.2 µM
TGI (K-562 leukemia): 32 µM
GI50 (KM12 colon): 4.19 µM
TGI (KM12 colon): 16 µM
GI50 (LOX IMVI melanoma): 2.2 µM
TGI (LOX IMVI melanoma): 5.84 µM
GI50 (M14 melanoma): 1.86 µM
TGI (M14 melanoma): 3.44 µM
GI50 (MALME-3M melanoma): 1.93 µM
TGI (MALME-3M melanoma): 4.62 µM
GI50 (MCF7 breast): 4.54 µM
TGI (MCF7 breast): 17.7 µM
GI50 (MDA-MB-231 breast): 3.5 µM
TGI (MDA-MB-231 breast): 13.2 µM
GI50 (MDA-MB-435): 2.24 µM
TGI (MDA-MB-435): 5.31 µM
GI50 (MOLT-4 leukemia): 4.38 µM
TGI (MOLT-4 leukemia): 31.9 µM
GI50 (NCI-H226 lung): 15.7 µM
TGI (NCI-H226 lung): 31.6 µM
GI50 (NCI-H23 lung): 11 µM
TGI (NCI-H23 lung): 28.5 µM
GI50 (NCI-H460 lung): 6.99 µM
TGI (NCI-H460 lung): 19.8 µM
GI50 (NCI-H522 lung): 7.22 µM
TGI (NCI-H522 lung): 19.2 µM
GI50 (NCI/ADR-RES ovarian): 11.6 µM
TGI (NCI/ADR-RES ovarian): 28.3 µM
GI50 (OVCAR-3 ovarian): 12.5 µM
TGI (OVCAR-3 ovarian): 26.5 µM
GI50 (OVCAR-4 ovarian): 10.3 µM
TGI (OVCAR-4 ovarian): 36.4 µM
GI50 (OVCAR-5 ovarian): 10.5 µM
TGI (OVCAR-5 ovarian): 27 µM
GI50 (OVCAR-8 ovarian): 11.9 µM
TGI (OVCAR-8 ovarian): 32.3 µM
GI50 (PC-3 prostate): 14.9 µM
TGI (PC-3 prostate): 60.4 µM
GI50 (RPMI-8226 leukemia): 3.49 µM
TGI (RPMI-8226 leukemia): 17.1 µM
GI50 (RXF 393 renal): 3.36 µM
TGI (RXF 393 renal): 11.1 µM
GI50 (SF-268 CNS): 10.3 µM
TGI (SF-268 CNS): 27.3 µM
GI50 (SF-295 CNS): 2.78 µM
TGI (SF-295 CNS): 9 µM
GI50 (SF-539 CNS): 4.36 µM
TGI (SF-539 CNS): 16.3 µM
GI50 (SK-MEL-2 melanoma): 6.56 µM
TGI (SK-MEL-2 melanoma): 13.8 µM
GI50 (SK-MEL-28 melanoma): 1.82 µM
TGI (SK-MEL-28 melanoma): 3.55 µM
GI50 (SK-MEL-5 melanoma): 1.74 µM
TGI (SK-MEL-5 melanoma): 3.64 µM
GI50 (SK-OV-3 ovarian): 15.3 µM
TGI (SK-OV-3 ovarian): 33.5 µM
GI50 (SN12C renal): 8.9 µM
TGI (SN12C renal): 36.5 µM
GI50 (SNB-19 CNS): 16.6 µM
TGI (SNB-19 CNS): 57.7 µM
GI50 (SNB-75 CNS): 13.7 µM
TGI (SNB-75 CNS): 45.3 µM
GI50 (SR leukemia): 3.14 µM
TGI (SR leukemia): > 24.6 µM
GI50 (SW-620 colon): 9.04 µM
TGI (SW-620 colon): 22.8 µM
GI50 (T-47D breast): 4.44 µM
TGI (T-47D breast): 16.2 µM
GI50 (TK-10 renal): 6.93 µM
TGI (TK-10 renal): 17.5 µM
GI50 (U251 CNS): 6.84 µM
TGI (U251 CNS): 20.5 µM
GI50 (UACC-257 melanoma): 2.46 µM
TGI (UACC-257 melanoma): 6.28 µM
GI50 (UACC-62 melanoma): 2.37 µM
TGI (UACC-62 melanoma): 6.26 µM
GI50 (UO-31 renal): 1.12 µM
TGI (UO-31 renal): 8.83 µM
